# In ChEMBL document CHEMBL3611967, “Molecular design and synthesis of certain new quinoline derivatives having potential anticancer activity” (Eur J Med Chem, 2015):
# Columns and labels:
# [1] = target: T1, Epidermal growth factor receptor (Homo sapiens, UniProt P00533); test: Inhibition of epidermal growth factor receptor kinase (unknown origin) using [33P]-ATP at 0.1 mM after 20 to 30 mins by radiometric assay
# [2] = system: MCF7; test: Anticancer against human MCF7 cells assessed as tumor growth inhibition after 72 hrs by SRB assay; type: functional, cell-based; conditions: MCF7, 72 h
# [3] = target: T1, Epidermal growth factor receptor; test: Inhibition of epidermal growth factor receptor kinase (unknown origin) using [33P]-ATP after 20 to 30 mins by radiometric assay
# [4] = target: T1, Epidermal growth factor receptor; test: Inhibition of epidermal growth factor receptor kinase (unknown origin) using [33P]-ATP at 0.001 uM after 20 to 30 mins by radiometric assay
# T1 sequence (P00533 whole entry): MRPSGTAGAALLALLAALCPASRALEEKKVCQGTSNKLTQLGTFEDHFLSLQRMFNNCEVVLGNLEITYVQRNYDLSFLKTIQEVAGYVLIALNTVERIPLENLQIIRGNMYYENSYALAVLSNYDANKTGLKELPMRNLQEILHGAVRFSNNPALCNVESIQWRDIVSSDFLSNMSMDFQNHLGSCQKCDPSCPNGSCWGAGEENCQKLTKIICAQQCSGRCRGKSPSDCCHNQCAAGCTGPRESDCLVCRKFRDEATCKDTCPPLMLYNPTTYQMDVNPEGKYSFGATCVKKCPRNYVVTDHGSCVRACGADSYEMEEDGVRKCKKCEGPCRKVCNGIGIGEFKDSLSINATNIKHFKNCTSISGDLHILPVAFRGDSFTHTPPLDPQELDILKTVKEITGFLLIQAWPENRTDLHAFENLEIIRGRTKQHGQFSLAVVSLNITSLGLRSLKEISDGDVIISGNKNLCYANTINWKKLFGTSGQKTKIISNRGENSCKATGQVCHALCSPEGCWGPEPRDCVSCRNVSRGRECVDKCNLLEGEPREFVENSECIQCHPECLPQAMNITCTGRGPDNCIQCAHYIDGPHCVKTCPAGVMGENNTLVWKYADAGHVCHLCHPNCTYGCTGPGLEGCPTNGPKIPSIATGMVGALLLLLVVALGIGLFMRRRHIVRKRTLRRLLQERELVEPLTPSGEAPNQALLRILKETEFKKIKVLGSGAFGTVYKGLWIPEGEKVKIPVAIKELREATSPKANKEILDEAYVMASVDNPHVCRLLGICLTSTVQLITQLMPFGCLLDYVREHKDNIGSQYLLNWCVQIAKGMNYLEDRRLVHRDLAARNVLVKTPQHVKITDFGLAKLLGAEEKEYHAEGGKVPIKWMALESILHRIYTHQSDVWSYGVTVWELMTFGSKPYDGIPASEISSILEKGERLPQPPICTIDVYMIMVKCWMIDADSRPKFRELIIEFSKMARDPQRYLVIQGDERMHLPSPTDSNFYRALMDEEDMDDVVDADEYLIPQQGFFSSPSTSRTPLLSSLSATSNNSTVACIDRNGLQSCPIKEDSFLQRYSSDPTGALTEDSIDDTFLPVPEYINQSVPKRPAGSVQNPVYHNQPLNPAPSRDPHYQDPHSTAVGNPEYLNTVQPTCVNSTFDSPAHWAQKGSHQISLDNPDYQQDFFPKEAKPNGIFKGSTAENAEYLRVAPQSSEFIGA
Structure (SMILES),IC50 [2] [µM],further results
CN(C)c1ccc(/C=C/C(=O)c2ccc3ncc(C(N)=O)c(Nc4ccc(Cl)cc4)c3c2)cc1,3.46,inhibition [1]: 3%; IC50 [3]: 5.28 µM; inhibition [4]: 1%
Cc1cc(NS(=O)(=O)c2ccc3ncc(C(N)=O)c(Nc4ccc(Cl)cc4)c3c2)no1,145,
C=CC(=O)Nc1ccc2ncnc(Nc3cc(F)c(Cl)c(Cl)c3)c2c1,,IC50 [3]: 3.7e-05 µM
NC(=O)c1cnc2ccc(-c3csc(NC(=S)Nc4ccccc4)n3)cc2c1Nc1ccc(Br)cc1,657,
Cc1ccc(Nc2c(C(N)=O)cnc3ccc(-c4csc(N)n4)cc23)cc1,62.2,
NC(=O)c1cnc2ccc(-c3csc(N)n3)cc2c1Nc1ccc(Br)cc1,334,
Cc1ccc(Nc2c(C(N)=O)cnc3ccc(C(=O)/C=C/c4ccc(N(C)C)cc4)cc23)cc1,2.16,
Cc1cc(NS(=O)(=O)c2ccc3ncc(C(N)=O)c(Nc4ccc(Br)cc4)c3c2)no1,33.7,
Cc1ccc(Nc2c(C(N)=O)cnc3ccc(S(=O)(=O)Nc4cc(C)on4)cc23)cc1,120,
NC(=O)c1cnc2ccc(C(=O)/C=C/c3ccc(Cl)cc3)cc2c1Nc1ccc(Br)cc1,328,inhibition [1]: -3%; IC50 [3]: 4.82 µM; inhibition [4]: 0%
Cc1cc(NS(=O)(=O)c2ccc(N/C=C(/C#N)C(=O)Nc3ccc(Cl)cc3)cc2)no1,28.4,
NC(=O)c1cnc2ccc(-c3csc(N)n3)cc2c1Nc1ccc(Cl)cc1,315,
Cc1ccc(Nc2c(C(N)=O)cnc3ccc(-c4csc(NC(=S)Nc5ccccc5)n4)cc23)cc1,386,
Cc1ccc(Nc2c(C(N)=O)cnc3ccc(C(=O)/C=C/c4ccc(Cl)cc4)cc23)cc1,41.2,
CN(C)c1ccc(/C=C/C(=O)c2ccc3ncc(C(N)=O)c(Nc4ccc(Br)cc4)c3c2)cc1,51,
NC(=O)c1cnc2ccc(C(=O)/C=C/c3ccc(Cl)cc3)cc2c1Nc1ccc(Cl)cc1,277,
NC(=O)c1cnc2ccc(-c3csc(NC(=S)Nc4ccccc4)n3)cc2c1Nc1ccc(Cl)cc1,326,
Cc1cc(NS(=O)(=O)c2ccc(N/C=C(/C#N)C(=O)Nc3ccc(Br)cc3)cc2)no1,14,
Cc1ccc(NC(=O)/C(C#N)=C\Nc2ccc(S(=O)(=O)Nc3cc(C)on3)cc2)cc1,50.9,
